Test results from ChEMBL document CHEMBL1201862, “PubChem BioAssay data set” (2004).
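Tested at 5 concentrations; 48 h exposure; 96-well plates; endpoints linearly interpolated, else capped at highest concentration. GI50 = concentration required for 50% inhibition of growth.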 The source made the active and inactive calls. No stated cut-off is given here; in the data, active = GI50 up to about 1.1 µM and inactive = higher.

What was measured:
Experiment in all cases: NCI anticancer screen, dose series, 48 h
HCT-116 = system: HCT-116
NCI-H23 = system: NCI-H23
A498 = system: A498
RXF 393 = system: RXF 393
PC-3 = system: PC-3
BT-549 = system: BT-549
HOP-92 = system: HOP-92
SF-268 = system: SF-268
A549 = system: A549
SK-MEL-5 = system: SK-MEL-5
T47D = system: T47D
SW-620 = system: SW-620
SK-OV-3 = system: SK-OV-3
CAKI-1 = system: CAKI-1
ACHN = system: ACHN
SF-295 = system: SF-295
COLO 205 = system: COLO 205
RPMI-8226 = system: RPMI-8226
OVCAR-5 = system: OVCAR-5
HCC 2998 = system: HCC 2998

Row | Compound | GI50 (HCT-116) | GI50 (NCI-H23) | GI50 (A498) | GI50 (RXF 393) | GI50 (PC-3) | GI50 (BT-549) | GI50 (HOP-92) | GI50 (SF-268) | GI50 (A549) | GI50 (SK-MEL-5) | GI50 (T47D) | GI50 (SW-620) | GI50 (SK-OV-3) | GI50 (CAKI-1) | GI50 (ACHN) | GI50 (SF-295) | GI50 (COLO 205) | GI50 (RPMI-8226) | GI50 (OVCAR-5) | GI50 (HCC 2998)
1 | Cc1ccc(S(=O)(=O)NC(=O)OC23COCN2COC3)cc1 | > 100 µM (inactive) | > 100 µM (inactive) | > 100 µM (inactive) | > 100 µM (inactive) | > 100 µM (inactive) | > 100 µM (inactive) | > 100 µM (inactive) | > 100 µM (inactive) | > 100 µM (inactive) | > 100 µM (inactive) | 69.5 µM (inactive) | 81.7 µM (inactive) | > 100 µM (inactive) | > 100 µM (inactive) | > 100 µM (inactive) | > 100 µM (inactive) | > 100 µM (inactive) | 29.5 µM (inactive) | > 100 µM (inactive) | > 100 µM (inactive)
2 | CN(C)c1ccc(C=c2c3ccccc3n3c2cc(-c2ccc(Cl)cc2)[n+]3C)cc1 | 0.0653 µM (active) | 0.195 µM (active) | 1.51 µM (inactive) | 0.822 µM (active) | 0.167 µM (active) | 0.201 µM (active) | 0.221 µM (active) | 0.473 µM (active) | 0.238 µM (active) | 0.167 µM (active) | 0.133 µM (active) | 0.242 µM (active) | 0.331 µM (active) | 0.259 µM (active) | 0.514 µM (active) | 0.501 µM (active) | 0.0705 µM (active) | 0.0372 µM (active) | 1.04 µM (active) | 0.603 µM (active)
3 | CN1CCOC1(C)c1ccccc1 (stereo not given) | > 100 µM (inactive) | > 100 µM (inactive) | > 100 µM (inactive) | > 100 µM (inactive) | > 100 µM (inactive) | > 100 µM (inactive) | > 100 µM (inactive) | > 100 µM (inactive) | > 100 µM (inactive) | > 26.1 µM (inactive) | > 100 µM (inactive) | > 100 µM (inactive) | > 100 µM (inactive) | > 100 µM (inactive) | > 100 µM (inactive) | > 100 µM (inactive) | > 100 µM (inactive) | > 100 µM (inactive) | > 100 µM (inactive) | > 100 µM (inactive)
4 | Cc1cc(C(=C2C=CC(=N)C=C2)c2ccc(N)cc2)ccc1N [FUCHSIN, BASIC] | 3.36 µM (inactive) | 2.98 µM (inactive) | 32.5 µM (inactive) | 7.16 µM (inactive) | 3.48 µM (inactive) | 0.82 µM (active) | 6.81 µM (inactive) | 0.556 µM (active) | 3.38 µM (inactive) | 1.46 µM (inactive) | 1.01 µM (active) | 3.67 µM (inactive) | 3.58 µM (inactive) | 11.9 µM (inactive) | 8.09 µM (inactive) | 0.564 µM (active) | 1.01 µM (active) | 2.42 µM (inactive) | 11.4 µM (inactive) | 3.23 µM (inactive)
5 | CC(C)=CCOc1cc(NC(=S)c2ccoc2C)ccc1Cl [UC 781] | > 100 µM (inactive) | > 100 µM (inactive) | > 100 µM (inactive) | > 100 µM (inactive) | > 100 µM (inactive) | > 100 µM (inactive) | 8.77 µM (inactive) | 45.5 µM (inactive) | > 100 µM (inactive) | > 100 µM (inactive) | 5.07 µM (inactive) | > 100 µM (inactive) | > 100 µM (inactive) | > 100 µM (inactive) | > 100 µM (inactive) | > 100 µM (inactive) | > 100 µM (inactive) | > 100 µM (inactive) | > 100 µM (inactive) | > 100 µM (inactive)
